Values of other authors in patent US6737430B2, “Mutual prodrug of amlodipine and atorvastatin” (Pfizer, Inc., priority 2000, dated 2004).

Legend:
calcium channel = conditions: cited from earlier work
[1] = test system: smooth muscle cell migration; conditions: cited from earlier work

SMILES: CCOC(=O)C1=C(COCCN)NC(C)=C(C(=O)OC)[C@H]1c1ccccc1Cl (single isomer, unassigned) [(R) enantiomer, R(−)-amlodipine]
- calcium channel blocking activity (calcium channel): little or no calcium channel blocking activity
- inhibition of smooth muscle cell migration [1]: potent inhibitor of smooth muscle cell migration
